One test addresses T1, CDK6/CyclinD3 (Homo sapiens, UniProt Q00534).
T1 construct: purchased Carna 04-107
Nature of the test: Kinase activity assay (MSA, EZ Reader) against CDK6. Format: biochemical. To be noted: CDK6/CyclinD3 5.00 nM, ATP 350 µM, FL-Peptide34, 10mM MgCl2.

Test [1] concerns Human breast cancer cells MCF-7. Description: Cell anti-proliferation assay (MTT), MCF-7. The class given is cell-based. To be noted: Homo sapiens, MCF7, 120 h, MCF-7 cells, incubated for 5 days. In outline:
(§1)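 Cells in DMEM with 10% FBS were seeded at 50,000 cells/mL and grown overnight at 37 °C, 5% CO2, then treated at 9 concentrations (3-fold serial dilution, 0.1% DMSO medium). MTT was added for 3 h, formazan dissolved in acidified isopropanol/NP-40, and absorbance read at 570 nm.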

Test [2] concerns human ovarian cancer cells A2780. Nature of the test: Cell anti-proliferation assay (MTT), A2780. Format: cell-based. The conditions noted are these: Homo sapiens, 120 h, incubated for 5 days. The method in brief:
as §1

The subject of test [3] is human mantle cell lymphoma cells JEKO-1. Nature of the test: Cell anti-proliferation assay (MTT), JEKO-1. The class given is cell-based. The conditions noted are these: Homo sapiens, 120 h, JEKO-1 cells, incubated for 5 days. The method in brief: as §1
A further test has as its target CDK4/CycD1 (Homo sapiens, UniProt P11802). Description: Kinase activity assay (MSA, EZ Reader) against CDK4.

In EP4775575A1, “COMPOUND USED AS CDK4 KINASE INHIBITOR AND USE THEREOF” (TYK Medicines, Inc., priority 2023, dated 2025) one finds IC50 data, which are given here for 22 compounds.

One may read the IC50 as the concentration needed to halve the response being measured.

Sequence of CDK4/CycD1 (P11802 whole entry): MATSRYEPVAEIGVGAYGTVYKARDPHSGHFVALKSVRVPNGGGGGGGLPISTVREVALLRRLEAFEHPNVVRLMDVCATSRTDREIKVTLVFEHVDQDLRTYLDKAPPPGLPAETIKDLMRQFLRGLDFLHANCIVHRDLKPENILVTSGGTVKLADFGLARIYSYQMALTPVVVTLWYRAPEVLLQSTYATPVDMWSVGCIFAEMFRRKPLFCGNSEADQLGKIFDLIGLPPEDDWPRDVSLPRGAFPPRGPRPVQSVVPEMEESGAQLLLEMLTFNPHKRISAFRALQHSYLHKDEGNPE
T1 sequence (Q00534 whole entry): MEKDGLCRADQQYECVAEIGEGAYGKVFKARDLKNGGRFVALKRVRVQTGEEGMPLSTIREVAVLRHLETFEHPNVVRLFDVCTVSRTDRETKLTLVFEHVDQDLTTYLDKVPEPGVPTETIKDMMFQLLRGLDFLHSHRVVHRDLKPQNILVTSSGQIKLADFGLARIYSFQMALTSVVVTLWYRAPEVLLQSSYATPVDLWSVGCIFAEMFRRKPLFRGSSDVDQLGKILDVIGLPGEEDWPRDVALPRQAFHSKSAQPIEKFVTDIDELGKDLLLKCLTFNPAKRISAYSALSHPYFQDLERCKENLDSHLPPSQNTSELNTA
T1 sequence (P30281 whole entry partner): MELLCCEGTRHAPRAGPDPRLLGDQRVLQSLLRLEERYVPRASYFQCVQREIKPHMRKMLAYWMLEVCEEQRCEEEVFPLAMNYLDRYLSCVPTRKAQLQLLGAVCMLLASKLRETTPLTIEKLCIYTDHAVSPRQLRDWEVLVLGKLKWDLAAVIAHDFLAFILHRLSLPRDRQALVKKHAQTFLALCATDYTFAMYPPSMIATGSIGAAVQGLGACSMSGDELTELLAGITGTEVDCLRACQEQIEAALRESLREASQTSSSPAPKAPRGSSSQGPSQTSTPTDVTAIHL

On to `CC(C)n1c(N2CCOC2=O)nc2c(F)cc(-c3nc(NC4CCN(S(C)(=O)=O)CC4)ncc3Cl)cc21` [TB-26], for which the IC50 was 200 nM at CDK6/CyclinD3; ≤ 500 nM in test [1]; ≤ 500 nM in test [2]; ≤ 500 nM in test [3]; 18.6 nM on CDK4/CycD1.

As to `CC1CCN(C)c2nc3c(F)cc(-c4nc(NC5CCN(S(C)(=O)=O)CC5)ncc4Cl)cc3n21` (centres unmarked) [TB-51, 5-chloro-4-(9-fluoro-1,4-dimethyl-1,2,3,4-tetrahydrobenzo[4,5]imidazo[1,2-a]pyrimidin-7-yl)-N-(1-(methylsulfonyl)piperidin-4-yl)pyrimidin-2-amine], the IC50 was 27.6 nM against CDK6/CyclinD3; ≤ 500 nM in test [1]; ≤ 500 nM in test [2]; ≤ 500 nM in test [3]; 2.23 nM at CDK4/CycD1.

Turning to `CC(C)n1c(N2CCOC2=O)nc2c(F)cc(-c3nc(NC4CCN(S(C)(=O)=O)CC4(F)F)ncc3Cl)cc21` (centres unmarked) [TB-35], the IC50 at CDK6/CyclinD3 was 167 nM; in test [1] it was ≤ 500 nM; in test [2], ≤ 500 nM; in test [3], ≤ 500 nM; at CDK4/CycD1, 15.5 nM.

Take `CCN1CCN(Cc2ccc(Nc3ncc(Cl)c(-c4cc(F)c5nc(N(C)C)n(C(C)C)c5c4)n3)nc2)CC1` [TB-16]: the IC50 is 44.6 nM at CDK6/CyclinD3; ≤ 500 nM in test [1]; ≤ 500 nM in test [2]; ≤ 500 nM in test [3]; 6.92 nM at CDK4/CycD1.

For the compound `CC(C)n1c(N(C)C)nc2c(F)cc(-c3nc(N[C@@H]4CCOC[C@H]4O)ncc3Cl)cc21` [TB-1], the IC50 is 67.8 nM against CDK6/CyclinD3; ≤ 500 nM in test [1]; ≤ 500 nM in test [2]; ≤ 500 nM in test [3]; 3.7 nM on CDK4/CycD1.

In the case of `COc1cc(N2CCNCC2)ccc1Nc1ncc(Cl)c(-c2cc(F)c3nc(N(C)C)n(C(C)C)c3c2)n1` [TB-17, 6-(5-chloro-2-((2-methoxy-4-(piperazin-1-yl)phenyl)amino)pyrimidin-4-yl)-4-fluoro-1-isopropyl-N,N-dimethyl-1H-benzo[d]imidazol-2-amine], the IC50 on CDK6/CyclinD3 is 297 nM; in test [1], 500 to 2000 nM; in test [2] it was 500 to 2000 nM; in test [3] it was 500 to 2000 nM; against CDK4/CycD1, 33.8 nM.

Regarding `CN1CCCn2c1nc1c(F)cc(-c3nc(Nc4ccc(C#N)cc4)ncc3Cl)cc12` [TB-133, 4-((5-chloro-4-(9-fluoro-1-methyl-1,2,3,4-tetrahydrobenzo[4,5]imidazo[1,2-a]pyrimidin-7-yl)pyrimidin-2-yl)amino)benzonitrile], the IC50 against CDK6/CyclinD3 is 64.8 nM; in test [1], ≤ 500 nM; in test [2], ≤ 500 nM; in test [3] it was ≤ 500 nM; against CDK4/CycD1, 17.9 nM.

On to `CC(C)n1c(N2CCCOC2=O)nc2c(F)cc(-c3nc(N[C@@H]4CCOC[C@H]4O)ncc3Cl)cc21` [TB-25], for which the IC50 on CDK6/CyclinD3 is > 500 nM; in test [1], 500 to 2000 nM; in test [2] it was ≤ 500 nM; in test [3], ≤ 500 nM; against CDK4/CycD1 it was 43.4 nM.

For `CC(C)n1c(N(C)C)nc2c(F)cc(-c3nc(NC4CCN(S(C)(=O)=O)CC4)ncc3Cl)cc21` [TB-3, 6-(5-chloro-2-((1-(methylsulfonyl)piperidin-4-yl)amino)pyrimidin-4-yl)-4-fluoro-1-isopropyl-N,N-dimethyl-1H-benzo[d]imidazol-2-amine], the IC50 at CDK6/CyclinD3 is 74.9 nM; in test [1], ≤ 500 nM; in test [2], ≤ 500 nM; in test [3] it was ≤ 500 nM; at CDK4/CycD1, 6.97 nM.

Take `CC(C)n1c(N2CCOC2=O)nc2c(F)cc(-c3nc(NC4CCN(S(=O)(=O)C(C)C)CC4)ncc3Cl)cc21` [TB-32]: the IC50 on CDK6/CyclinD3 is 145 nM; in test [1], ≤ 500 nM; in test [2] it was ≤ 500 nM; in test [3] it was ≤ 500 nM; on CDK4/CycD1, 12.3 nM.

For `CC(C)n1c(N(C)C)nc2c(F)cc(-c3nc(N[C@@H]4CCN(S(C)(=O)=O)C[C@H]4O)ncc3Cl)cc21` [TB-13, (3R,4R)-4-((5-chloro-4-(2-(dimethylamino)-4-fluoro-1-isopropyl-1H-benzo[d]imidazol-6-yl)pyrimidin-2-yl)amino)-1-(methylsulfonyl)piperidin-3-ol], the IC50 at CDK6/CyclinD3 is 18.6 nM; in test [1] it was ≤ 500 nM; in test [2], ≤ 500 nM; in test [3], ≤ 500 nM; against CDK4/CycD1 it was 1.27 nM.

On to `CC(C)n1c(N2CCOC2=O)nc2c(F)cc(-c3nc(Nc4ccc(S(=O)(=O)NCCN(C)C)cc4)nc4[nH]cnc34)cc21` [TB-70], for which the IC50 against CDK6/CyclinD3 was 76.6 nM; in test [1], ≤ 500 nM; in test [2], ≤ 500 nM; in test [3], ≤ 500 nM; against CDK4/CycD1, 18.5 nM.

On to `CC(C)n1c(N2CCOC2=O)nc2c(F)cc(-c3nc(Nc4ccc(S(=O)(=O)NCCN(C)C)cc4)ncc3Cl)cc21` [TB-38, 4-((5-chloro-4-(4-fluoro-1-isopropyl-2-(2-oxooxazolidin-3-yl)-1H-benzo[d]imidazol-6-yl)pyrimidin-2-yl)amino)-N-(2-(dimethylamino)ethyl)benzenesulfonamide], for which the IC50 was 76.6 nM on CDK6/CyclinD3; ≤ 500 nM in test [1]; ≤ 500 nM in test [2]; ≤ 500 nM in test [3]; 18.5 nM on CDK4/CycD1.

`CC(C)n1c(N2CC[C@@H](O)C2)nc2c(F)cc(-c3nc(N[C@@H]4CCOC[C@H]4O)ncc3Cl)cc21` [TB-7, (R)-1-(6-(5-chloro-2-(((3S,4R)-3-hydroxytetrahydro-2H-pyran-4-yl)amino)pyrimidin-4-yl)-4-fluoro-1-isopropyl-1H-benzo[d]imidazol-2-yl)pyrrolidin-3-ol]: the IC50 against CDK6/CyclinD3 was 113 nM; in test [1] it was ≤ 500 nM; in test [2], ≤ 500 nM; in test [3] it was ≤ 500 nM; against CDK4/CycD1, 2.94 nM.

As to `CC1(C)CSc2nc3c(F)cc(-c4nc(N[C@@H]5CCOC[C@H]5O)ncc4Cl)cc3n2C1` [TB-146], the IC50 is 60.1 nM against CDK6/CyclinD3; ≤ 500 nM in test [1]; ≤ 500 nM in test [2]; ≤ 500 nM in test [3]; 11.9 nM against CDK4/CycD1.

Take `CC(C)n1c(N(C)CCO)nc2c(F)cc(-c3nc(N[C@@H]4CCOC[C@H]4O)ncc3Cl)cc21` [TB-9, (3S,4R)-4-((5-chloro-4-(4-fluoro-2-((2-hydroxyethyl)(methyl)amino)-1-isopropyl-1H-benzo[d]imidazol-6-yl)pyrimidin-2-yl)amino)tetrahydro-2H-pyran-3-ol]: the IC50 against CDK6/CyclinD3 was 223 nM; in test [1], 500 to 2000 nM; in test [2] it was ≤ 500 nM; in test [3], ≤ 500 nM; against CDK4/CycD1 it was 40.1 nM.

As for `C[C@@H]1C[C@H](C)n2c(nc3c(F)cc(-c4nc(N[C@@H]5CCOC[C@H]5O)ncc4Cl)cc32)N1C` [TB-154], the IC50 against CDK6/CyclinD3 is 75.8 nM; in test [1] it was ≤ 500 nM; in test [2] it was ≤ 500 nM; in test [3] it was ≤ 500 nM; on CDK4/CycD1, 3 nM.

As for `CC(C)n1c(N2CC[C@H](O)C2)nc2c(F)cc(-c3nc(N[C@@H]4CCOC[C@H]4O)ncc3Cl)cc21` [TB-6, (S)-1-(6-(5-chloro-2-(((3S,4R)-3-hydroxytetrahydro-2H-pyran-4-yl)amino)pyrimidin-4-yl)-4-fluoro-1-isopropyl-1H-benzo[d]imidazol-2-yl)pyrrolidin-3-ol], the IC50 against CDK6/CyclinD3 is 190 nM; in test [1] it was 500 to 2000 nM; in test [2], ≤ 500 nM; in test [3] it was ≤ 500 nM; at CDK4/CycD1, 10.8 nM.

Consider `CC(C)n1c(N2CCCC2)nc2c(F)cc(-c3nc(N[C@@H]4CCOC[C@H]4O)ncc3Cl)cc21` [TB-11, (3S,4R)-4-((5-chloro-4-(4-fluoro-1-isopropyl-2-(pyrrolidin-1-yl)-1H-benzo[d]imidazol-6-yl)pyrimidin-2-yl)amino)tetrahydro-2H-pyran-3-ol], for which the IC50 on CDK6/CyclinD3 was 202 nM; in test [1], ≤ 500 nM; in test [2] it was ≤ 500 nM; in test [3], ≤ 500 nM; against CDK4/CycD1, 6.45 nM.

As to `CC(C)n1c(N2CC(O)C2)nc2c(F)cc(-c3nc(N[C@@H]4CCOC[C@H]4O)ncc3Cl)cc21` [TB-14, 1-(6-(5-chloro-2-(((3S,4R)-3-hydroxytetrahydro-2H-pyran-4-yl)amino)pyrimidin-4-yl)-4-fluoro-1-isopropyl-1H-benzo[d]imidazol-2-yl)azetidin-3-ol], the IC50 at CDK6/CyclinD3 is 235 nM; in test [1], ≤ 500 nM; in test [2] it was ≤ 500 nM; in test [3], ≤ 500 nM; against CDK4/CycD1, 6.37 nM.

As for `CC(C)n1c(N(C)C)nc2c(F)cc(-c3nc(NC4CCOCC4)ncc3Cl)cc21` [TB-2, 6-(5-chloro-2-((tetrahydro-2H-pyran-4-yl)amino)pyrimidin-4-yl)-4-fluoro-1-isopropyl-N,N-dimethyl-1H-benzo[d]imidazol-2-amine], the IC50 is 319 nM against CDK6/CyclinD3; ≤ 500 nM in test [1]; ≤ 500 nM in test [2]; ≤ 500 nM in test [3]; 18 nM at CDK4/CycD1.

As for `CC(C)n1c(N(C)C)nc2c(F)cc(-c3nc(Nc4ccc(N5CCNCC5)cn4)ncc3Cl)cc21` [TB-18, 6-(5-chloro-2-((5-(piperazin-1-yl)pyridin-2-yl)amino)pyrimidin-4-yl)-4-fluoro-1-isopropyl-N,N-dimethyl-1H-benzo[d]imidazol-2-amine], the IC50 against CDK6/CyclinD3 was 13.7 nM; in test [1], ≤ 500 nM; in test [2], ≤ 500 nM; in test [3] it was ≤ 500 nM; on CDK4/CycD1 it was 2.6 nM.
